Assay results published in patent publication US20200216906A1, “METHODS AND COMPOSITIONS RELATING TO THE DIAGNOSIS AND TREATMENT OF CANCER” (PRESIDENT AND FELLOWS OF HARVARD COLLEGE, priority 2015, published 2020).
Structures can show the parent of a compound that is named as a salt. Where two headings read alike, the source gives them in different places.

Experiments:
Miapaca2-GFP xenografts = experiment: Mouse xenograft, Miapaca2-GFP; type: in vivo; settings: i.p., alternate days for two weeks
Experimental: (§1) To assess the gemcitabine response to Hippo pathway inactivation in tumors a mouse xenograft model of pancreatic carcinoma cells and patient-derived xenograft (PDX) models from a variety of solid tumors including human cancers from non-small cell lung, esophagus, breast, mesothelium, ovary, colon, head and neck, sarcoma, and cholangiocarcinoma were used (FIG. 30). In mouse xenograft studies, two human pancreatic cancer cell lines (Miapac2 and Panc02.13) expressing GFP or YAPS6A were injected into athymic mice. Both parental or GFP expressing cells grew rapidly, producing palpable tumors in 5-10 days. When the tumors were ˜200 mm^3 (as measured using a caliper), mice were randomized into treatment and control groups. The […] received i.p. saline injections on alternate days for two weeks, and the latter received gemcitabine (20 mg/kg in Miapaca2-YAPS6A and 50 mg/Kg in Panc02.13-YAPS6A cohorts).
Tumorigenicity in Nude Mice. All in vivo experiments were performed using 6-week-old to 8-week-old athymic nude mice. Mice were maintained in laminar flow rooms with constant temperature and humidity. Miapaca2 or Panc02.13 cells were inoculated subcutaneously (s.c.) into each flank of the mice. […] Tumor volumes (V) were calculated using the formula: V=AB2/2 (A, axial diameter; B, rotational diameter). […]

[1] = system: Panc02.13 cells expressing YAPS6A construct; experiment: Kinetic cell growth assay, Panc02.13 cells expressing YAPS6A; type: cell-based, human; settings: for EC50: Homo sapiens, YAPS6A construct
Experimental: Panc02.13 cells were used to express YAPS6A (or vector controls) under sparse and dense cultures. Expression was confirmed by confocal microscopy (data not shown). Suppression of the Hippo pathway by expression of non-phospho, active form of YAP (YAPS6A) sensitized pancreatic cancer cells to gemcitabine and 5-FU (FIGS. 6 and 7). Apoptosis was measured by immunobloting with cleaved caspases 3/7 or PARP. Blots were also stained with anti-β-actin for loading control. The effect of Hippo pathway suppression on gemcitabine and 5-FU senstitization was maintained in 3D spheroid culture (FIG. 8). The effects of eleven cytotoxic drugs on the growth of Panc02.13 cells expressing vector only or YAPS6A construct grown under low or high densities were determined (Table 1).
(§2) The effect of gemcitabine on pancreatic cancer cell growth was studied using a kinetic cell growth assay. Pancreatic cancer cells were plated on 96-well plates (Essen ImageLock, Essen Instruments, MI, US) at varying densities (2-4×10^3 for low density or 15-20×10^3 for high density experiments). Small molecule inhibitors at different doses were added 24 hours after plating and cell confluence was monitored with Incucyte Live-Cell Imaging System and software (Essen Instruments). Confluence was observed every hour for 48-144h or until the control (DMSO only) samples reached 100% confluence.
Cell lines (Panc02.13, Panc10.05 or Miapaca2) were transfected with YAPS6A constructs (Addgene) using Lipofectamine™ (Invitrogen, Carlsbad, Calif.) following the manufacturer's instructions and 48 hour post-transfection selected in 5-10 μg/ml Blasticidin (InvivoGen, San Diego, Calif.). The clones screened for YAPS6A expression by Western blot. Stable cell lines were maintained in complete medium and 5 μg/ml Blasticidin.
as §2, with “Kinetic Cell growth assay. The” for “The”, “(2-4X103” for “(2-4×10^3”, “15-20X103” for “15-20×10^3”, “Incucyte™” for “Incucyte”

Panc02.13 cells = experiment: Radiolabeled gemcitabine efflux; type: in vitro ADME, human; settings: counts per μg protein; more in Hippo-ON
Experimental: Panc02.13 cells expressing GFP or YapS6A plasmid were treated with radiolabeled gemcitabine (0.5 μM) for one hour. Cells were washed twice with PBS and incubated in fresh medium. Medium was collected over the time course of 24 hours and radioactivity was measured using scintillation counter.
It was considered whether the Hippo pathway might affect the efflux of gemcitabine and/or its metabolites. To assess directly gemcitabine efflux in conditioned media of pancreatic cancer cells both radiolabeled gemcitabine and LC-MS/MS-based methods were used. Panc02.13 cells grown in highly crowded conditions (Hippo-ON) pumped out 2-3-fold more radiolabeled gemcitabine (counts per μg protein) compared with cells grown in less crowded conditions (Hippo-OFF) (FIG. 22A). Another pathway of inactivation and export is the enzymatic conversion of gemcitabine to a uracil derivative (2′,2′-difluorodeoxyuridine, dFdU) by deamination catalyzed by cytidine deaminase (CDA)(Veltkamp et al., 2008). The efflux of gemcitabine and its deaminated metabolite, dFdU was measured by LC-MS/MS (24) in Panc02.13 cells expressing YAPS6A or vector control after gemcitabine treatment (FIG. 22B).
Measuring gemcitabine efflux. […] Medium was collected over the time course of 24 hours and radioactivity was measured using scintillation counter.

H2052 (LATS2) cells = experiment: Gemcitabine and dFdU efflux by LC-MS/MS, H2052 cells; type: in vitro ADME; settings: higher in H2052 (LATS2)
Description: Are defects in the Hippo pathway the major cause of gemcitabine sensitivity? […] Restoring the levels of LATS2 in H2052 cells caused an increase in the mRNA and proteins levels of ABCG2 and CDA (FIGS. 23C, 36A-36M).

[2] = system: Miapaca2-YAPS6A xenografts; experiment: Mouse xenograft, Miapaca2-YAPS6A; type: in vivo
Experimental: as §1
Tumorigenicity in Nude Mice. All in vivo experiments were performed using 6-week-old to 8-week-old athymic nude mice. Mice were maintained in laminar flow rooms with constant temperature and humidity. Miapaca2 or Panc02.13 cells were inoculated subcutaneously (s.c.) into each flank of the mice. Cells (2×10^6 in suspension) were injected on day 0, and tumor growth was followed every 2 to 3 days by tumor diameter measurements using vernier calipers. Tumor volumes (V) were calculated using the formula: V=AB2/2 (A, axial diameter; B, rotational diameter). When the outgrowths were • 200 mm^3, mice were divided at random into two groups (control and treated, n=3-8). The treated group received gemcitabine injection or saline control on alternate days (MWF) for 2 weeks.
Intra-tumor gemcitabine measurements.

## Nc1ccn([C@@H]2O[C@H](CO)[C@@H](O)C2(F)F)c(=O)n1 [Gemcitabine, Gemcitabine hydrochloride]
Miapaca2-GFP xenografts
  Growth of xenografts: no affect
[1]; high density, read-out: High density (EC50, nM) 02.13-YAPS6A
  EC50: 17 nM
[1]; low density, read-out: Low density (EC50, nM) 02.13-YAPS6A
  EC50: 1.7 nM
[1]; suppression of the Hippo pathway, high cell density
  Sensitization by expression of YAPS6A: sensitized
Panc02.13 cells
  Radiolabeled gemcitabine pumped out, highly crowded vs less crowded: 2-3 fold
H2052 (LATS2) cells
  Effluxed gemcitabine in media, H2052 (LATS2) vs parental H2052 (LATS2−/−): ~10 fold
[2]; 20 mg/kg, alternate days for two weeks
  Growth of xenografts: significantly slowed
[2]; cleaved caspase 7 and phosphor-H2aX
  Induction in apoptosis vs parental controls: > 2 fold
